This note sets out measurements from patent US20060166934A1, “Composition comprising phytosphingosine derivatives for apoptosis induction” (Tae-Yoon Kim, priority 2002, published 2006).

In data set [1] the test system is human umbilical vein endothelial cells (HUVEC). Put plainly: MTT assay, cytotoxicity in HUVEC. It is filed as cell-based. The settings on record: for Cell viability: HUVEC, con = 100, in %. Here is the method: (§1) Firstly, the cytotoxicity is measured by the MTT assay. Phytosphingosine (PS), phytosphingosine-HCl (PS-HCl), C6-phytosphingosine (C6-PS), CLA-phytosphingosine (CLA-PS), tetraacetyl phytosphingosine (TAPS), and N-acetyl phytosphingosine (NAPS) are dissolved into DMSO to have the final concentration of 1-100 μM.
(§2) In order to study the effects of the compositions of the present invention on the cytotoxicity in the human keratinocyte cell line HaCaT cells, the cell viability is analyzed by the MTT (3-[4,5-dimethylthiazol-2-yl]-2,5-diphenyltetrazolium bromide) assay. HaCaT cells are supplied by Professor N. Fuseng of German Cancer Research in Germany. HaCaT cells are seeded in a density of 1×10^6 cells in a […] and cultured in DMEM (Dulbecco's Modified Eagle Medium) containing 10% fetal bovine serum (FBS, GIBCO), 100 units/ml penicillin, and 100 μg/ml streptomycin for 48 hours. They are treated with trypsin and 1-2×10^4 cells per well are seeded again in a 96-well plate by using a serum-free culture medium, about 3 hours after which they are cultured by treatment with phytosphingosine derivatives. After they are cultured for 24 hours, the MTT reagent is added at a concentration of 2 mg/ml, cultured for 4 hours, suspended in DMSO after removing the culture medium completely in order to measure O.D. at 540 nm. C2-ceramide is used for comparison.
The MTT assay is used for the above purpose. Primary human umbilical vein endothelial cells are cultured from the human umbilical vein. The method of cell culture and the MTT assay are the same as those in the above. C2-ceramide is used for comparison.

In data set [2] the test system is Th1 cells activation. The data set is described as follows: Mixed leukocyte reaction (MLR), Th1 cells activation by TNBSO3, MTT assay. It is filed as cell-based, mice. The settings on record: MLR with TNBSO3-conjugated stimulator cells, FIG. 4. How it is done:
Whether the composition of the present invention has a suppressive effect on the Th1 cells activation which isolate […], IL-12, etc. by reacting with TNBSO3 […] was examined.
The mononuclear cells obtained from spleen of mice as described the above 4 were used for responder cells, and TNBSO3-conjugated cells were used for stimulator cells. The stimulator cells were obtained as follows:
The mononuclear cells were adjusted to be 2×10^7 cells/ml in PBS and the same volume of 20 mM TNBSO3 was added and incubated at 37° C. for 10 min in the dark state. After incubation, the cells wrer washed three times with PBS.
(§3) Each 2×10^5 responder cells and stimulator cells were mixed with each other and cultured for 5 days on the 96-well plate. And RPMI with 10% of serum was used as a medium.
(§4) The above cells were cultured for 24 hours in the presence of 1, 10, 50 and 100 μM of NAPS, TAPS, and PS to examine the proliferation of the cells.
(§5) C2-ceramide was used as control.
(In general: Tetrazolium dyes change colour on reduction, which living cells bring about.)

The subject of data set [3] is Th1 cells activation against allogenic cells (PBMC). Put plainly: Reactions among allogenic cells, Th1 cells activation, MTT assay. The data set is classed as cell-based, human. The settings on record: FIG. 5.
From the text: Whether the composition of the present invention has a suppressive effect on the Th1 cells activation by allogenic cells in immune reation was examined.
PBMC obtained from different volunteers as described in the above 5 were used for responder cells and stimulator cells respectively. PBMC for stimulator cells were used after X-ray irradiation (3000 rad) to inhibit the proliferation of stimulator cells.
as §3, §4, §5

The subject of data set [4] is human keratinocyte cell line HaCaT cells. The data set is described as follows: MTT assay, cytotoxicity in human keratinocyte cell line. It is filed as cell-based. Particulars: for Cell viability: 24 hours, con = 100, in %. How it is done:
as §1, §2

Data set [5] concerns HaCaT cells human keratinocyte cell line. Put plainly: MTT assay, combined administration with Vit D3 or calcipotriol. The data set is classed as cell-based. Here is the method:
In order to study the synergistic effect in the cytotoxicity when the compositions of the present invention are administered in combination with Vit D3 or calcipotriol, the cell viability is analyzed by MTT assay method in HaCaT cells human keratinocyte cell line.
To HaCaT cells, 1 μM of Vit D3 or calcipotriol, or 10 μM each of NAPS and TAPS, is administered singly or in combination with each other, and they are cultured for 24 hours. And the effects of these drugs on the cytotoxicity according to the single or combined administration are observed by MTT assay. C2-ceramide is used for comparison.

For data set [6], the system named is HaCaT cells. Put plainly: MTT assay, combined treatment with UVB irradiation. The data set is classed as cell-based, human. Further details: Cell viability: unit not given here. Particulars: for cytotoxicity: 10 μM only; for Cell viability: HaCaT. Here is the method: In order to study the synergistic effect in the cytotoxicity by the cotreatment with administration of the compositions of the present invention and with UVB irradiation, the cell viability is analyzed by MTT assay method in HaCaT cells. On a 100-mm dish, 1×10^6 HaCaT cells are seeded and cultured in DMEM containing 10% fetal bovine serum, 100 units/ml penicillin, and 100 μg/ml streptomycin for 48 hours. They are treated with trypsin, and 1-2×10^4 cells per well are seeded on a 96-well plate again by using a serum-free medium, which is removed after about 3 hours. HaCaT cells are washed with PBS three times, and 3.5 ml of PBS per plate is added. It is then irradiated with 200 J/m^2 of UVB. After irradiation, the medium is replaced with a DMEM medium. Then it is treated with the phytosphingosine derivatives of the present invention, and cultured for 24 hours. After 2 mg/ml of the MTT reagent is added, it is cultured for 4 hours. The medium is removed completely, the cells are suspended in DMSO, and O.D. is measured at 540 nm.

The subject of data set [7] is caspase-3. Put plainly: Immunoblot analysis of active caspase-3. The data set is classed as cell-based, human. The settings on record: HaCaT, FIG. 11; for time to maximum active caspase-3: after treatment; for maximum increase of active caspase-3 (expression of induction): immunoblot. How it is done: In the confirmation of apoptosis-related proteins, the immunoblot analysis is performed in order to look into the effects of the compositions of the present invention on the expression of caspase-3, p53, and Chk1 proteins related to the induction of apoptosis.
HaCaT cells are cultured on a 100-mm dish and collected at the indicative time. The proteins are extracted by adding 500 μl of RIPA lysis buffer (1% Nonidet P-40, 1% sodium deoxycholate, 0.1% SDS, […], 0.01 M sodium phosphate, pH 7.2, 2 mM EDTA, 50 mM sodium fluoride and 0.2 mM sodium vanadate), and the concentration is measured by using the Bradford method. 1
Extracted proteins is electrophoresed on 12% polyacrylamide gel, and they are transferred to the nitrocellulose membrane. The membrane blocked with 5% non-fat milk is reacted with the primary antibodies (caspase-3, p53, and Chk1), washed, and reacted with the secondary HRP-conjugated antibody. The intensity of proteins is analyzed by using the ECL kit.
In general terms: A western blot detects proteins with antibodies after separation by electrophoresis.

As for `CCCCCCCCCCCCCC[C@@H](O)[C@@H](O)[C@H](CO)NC(C)=O` [NAPS, N-acetyl phytosphingosine], the cytotoxicity in data set [1] (human, 24 h, 30 μM) is recorded as 86-91%. In data set [2], the “concentration showing a suppressive effect on Th1 cells activation” value was 50 µM. Further, the “concentration showing a suppressive effect on Th1 cells activation against allogenic cells” value in data set [3] was determined as 50 μM. The compound further showed a cytotoxicity in data set [4] (human, 24 h, 30 μM) of 83%. For the same compound, in data set [5] (human, 24 h, 10 µM), the Cell viability was 86 ± 2 and the cytotoxicity turned out to be 14%. Moreover, the cytotoxicity in data set [6] (no UVB) is reported as 33%. Besides, in data set [7], the “time after treatment at which cleavage to active caspase-3 is increased significantly” value is 30 min, the “time for which increased active caspase-3 is maintained” value was found to be 12 h, the “time to maximum active caspase-3” value was no more than 3 h and the “maximum increase of active caspase-3 (expression of induction)” value is on record as 6 folds.

As for tetraacetyl phytosphingosine [TAPS], the Cell viability in data set [1] (3.5 μM) was 47 ± 8.4; in data set [1] (7 μM), 22 ± 1.9; in data set [1] (15 μM), 15 ± 0.7; in data set [1] (30 μM), 9 ± 0.5; in data set [4] (1 μM, HaCaT), 94 ± 0.1; in data set [4] (3 μM, HaCaT), 93 ± 2.9. Further, the Cell viability is recorded as 76 ± 1.4 in data set [4] (10 μM, HaCaT); 17 ± 1.1 in data set [4] (30 μM, HaCaT); 34 ± 4 in data set [5] (10 μM combined with Vit D3 (1 μM), 24 hours, HaCaT, in %); 36 ± 8 in data set [5] (10 μM combined with calcipotriol (1 μM), 24 hours, HaCaT, in %); 76 ± 2 in data set [5] (10 μM singly, 24 hours, HaCaT, in %); 27 ± 7.1 in data set [6] (1 μM + UVB 200 J/m^2, 24 hours). Besides, the Cell viability in data set [6] (1 μM, no UVB, 24 hours) is on record as 111 ± 7.0; in data set [6] (3 μM + UVB 200 J/m^2, 24 hours) it was 27 ± 3.9; in data set [6] (3 μM, no UVB, 24 hours), 97 ± 10.0; in data set [6] (5 μM + UVB 200 J/m^2, 24 hours), 16 ± 3.2; in data set [6] (5 μM, no UVB, 24 hours) it was 83 ± 8.0; in data set [6] (10 μM + UVB 200 J/m^2, 24 hours), 2 ± 0.1. In addition, the Cell viability in data set [6] (10 μM, no UVB, 24 hours) was 43 ± 4.0. Moreover, the “concentration showing a suppressive effect on Th1 cells activation” value in data set [2] turned out to be 10 µM. For the same compound, the “suppressive effect on Th1 cells activation against allogenic cells” value in data set [3] (50 μM) is given as “suppress completely”. Further, the “concentration showing a suppressive effect on Th1 cells activation against allogenic cells” value in data set [3] is recorded as 50 μM. Also, the cytotoxicity in data set [4] (30 μM, HaCaT) was 83%; in data set [5] (10 μM combined application with Vit D3), 66%; in data set [5] (10 μM combined application with calcipotriol), 64%; in data set [5] (10 μM single administration), 24%; in data set [6] (no UVB), 57%. In addition, the “time for which increased active caspase-3 is maintained” value in data set [7] worked out at 24 h. The “time to maximum active caspase-3” value in data set [7] is no more than 3 h. Moreover, the “maximum increase of active caspase-3 (expression of induction)” value in data set [7] was found to be 5 folds.
